The target of one data set is T1, ovine COX-1 (Ovis aries, UniProt P05979).
T1 construct: purchased Cayman Chemicals 701050
T1 sequence (P05979 25-600): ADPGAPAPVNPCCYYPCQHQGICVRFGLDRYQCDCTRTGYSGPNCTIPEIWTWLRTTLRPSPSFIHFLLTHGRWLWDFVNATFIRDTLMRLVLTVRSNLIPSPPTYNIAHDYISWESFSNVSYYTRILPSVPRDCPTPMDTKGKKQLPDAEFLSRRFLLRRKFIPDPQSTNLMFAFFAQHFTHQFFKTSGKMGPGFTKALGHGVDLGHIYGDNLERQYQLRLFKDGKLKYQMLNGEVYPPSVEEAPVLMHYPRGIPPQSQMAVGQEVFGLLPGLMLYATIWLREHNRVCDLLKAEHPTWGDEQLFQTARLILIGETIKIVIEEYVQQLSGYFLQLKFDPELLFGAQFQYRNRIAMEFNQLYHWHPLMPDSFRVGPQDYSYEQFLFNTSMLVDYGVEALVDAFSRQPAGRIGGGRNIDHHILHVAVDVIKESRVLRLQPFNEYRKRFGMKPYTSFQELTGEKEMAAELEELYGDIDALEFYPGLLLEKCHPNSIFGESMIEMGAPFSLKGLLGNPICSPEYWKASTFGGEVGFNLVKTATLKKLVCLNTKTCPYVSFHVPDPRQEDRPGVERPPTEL
In words: Cyclooxygenase colorimetric inhibitor screening assay, COX-1.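 For all read-outs here: COX peroxidase activity read colorimetrically as oxidized TMPD at 590 nm, arachidonic acid as substrate, inhibitors tested at 0.001–50 µM from DMSO stocks.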 It is filed as biochemical. The conditions noted are these: for inhibition at 50 µM / IC50: read-out: oCOX-1; for inhibition at 50 µM: % Inhibition at 50 µM (converted); for IC50: ovine COX-1, colorimetric kit, triplicate.

The next data set addresses T2, human COX-2 (Homo sapiens, UniProt P35354).
T2 construct: purchased Cayman Chemicals 701050
T2 sequence (P35354 18-604): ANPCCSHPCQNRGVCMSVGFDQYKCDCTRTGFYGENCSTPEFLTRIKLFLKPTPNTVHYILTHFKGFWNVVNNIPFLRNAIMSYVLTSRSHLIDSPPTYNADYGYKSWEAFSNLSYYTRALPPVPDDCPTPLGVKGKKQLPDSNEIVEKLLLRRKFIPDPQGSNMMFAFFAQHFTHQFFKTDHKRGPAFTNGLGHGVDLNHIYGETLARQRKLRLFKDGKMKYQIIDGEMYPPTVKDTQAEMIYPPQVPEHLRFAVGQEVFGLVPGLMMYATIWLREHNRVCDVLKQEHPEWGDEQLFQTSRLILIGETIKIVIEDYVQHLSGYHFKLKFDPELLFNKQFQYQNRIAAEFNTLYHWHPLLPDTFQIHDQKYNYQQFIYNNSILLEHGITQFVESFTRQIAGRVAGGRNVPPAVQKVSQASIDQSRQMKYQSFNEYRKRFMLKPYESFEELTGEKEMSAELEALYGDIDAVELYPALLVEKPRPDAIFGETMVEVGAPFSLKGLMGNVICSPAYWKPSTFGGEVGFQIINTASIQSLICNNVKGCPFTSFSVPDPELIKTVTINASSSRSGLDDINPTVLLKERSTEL
In words: Cyclooxygenase colorimetric inhibitor screening assay, COX-2.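 For all read-outs here: peroxidase activity of COX-2 followed colorimetrically through formation of oxidized TMPD at 590 nm, with arachidonic acid as substrate, compounds tested from 0.001 to 50 µM.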 It is filed as biochemical. The conditions noted are these: read-out: hCOX-2; for IC50: human COX-2, colorimetric kit; for inhibition at 50 µM: human COX-2, 50 µM.

For another data set, the system named is BV2 microglia cells. In words: ROS production (H2DCFDA) in LPS-treated BV2 microglia. The settings on record: 3 μM, LPS 1 μg/mL, 24 h. Format: cell-based. The source says: Activation of toll-like receptors (TLRs), particularly the TLR4 subtype, is closely associated with the production of reactive oxygen and nitrogen species that contribute to neuronal death in the CNS. In this connection, NADPH oxidase enzymes are the main ones responsible for ROS production induced by NF-κB nuclear translocation. For this reason, we decided to assess the ROS levels of BV2 microglia cells treated with LPS and the effect of our compounds under this toxicity protocol. To this end, the compounds, at different concentrations (3 μM of 3a, 3b, and 3d and 10 μM of 3c) were incubated with 1 μg/mL LPS for 24 h. After this period, ROS production was measured with the fluorescent probe H2DCFDA. Treatment with LPS increased by 1.75-fold the amount of ROS compared with control cells.
Cultures were seeded into flasks containing supplemented medium and kept at 37 °C in a humidified atmosphere of 5% CO2 and 95% air. For assays, BV-2 cells were subcultured in 48-well plates at a seeding density of 1 × 10^5 cells per well. Cells were treated with LPS (Sigma-Aldrich, Madrid, Spain) for 24 or 48 h before confluence in RPMI with 1% FBS.
To measure cellular ROS, we used the molecular probe 2′,7′-dichlorodihydrofluorescein diacetate (H2DCFDA). Glial cells were loaded with 5 µM H2DCFDA as it was previously described (Parada et al., 2015). Fluorescence was measured in a fluorescence microplate reader (FLUOstar Galaxy; BMG Labtech, Offenburg, Germany). Wavelengths of excitation and emission were 485 and 520 nm, respectively. The relative pixel intensity was measured in identical regions with (ImageJ 1.52a software, National Institutes of Health, Bethesda, MD, USA).

Procedure for human COX-2: (§1) Newly synthesized compounds were evaluated for their ability to inhibit ovine COX-1 or human COX-2 enzyme by measuring the extent (%) of enzyme activity inhibition at different concentrations (0.001, 0.01, 0.1, 1, 10, 50 μM). […] The assay kit measures the peroxidase component of COXs that is assayed colorimetrically by monitoring the appearance of oxidized N,N,N′,N′-tetramethyl-p-phenylenediamine (TMPD) a λ = 590 nm. […] Stock solutions of test compounds were dissolved in DMSO.
Procedure for ovine COX-1: as §1

Consider `Nc1cc(-c2ccc(Cl)cc2)cc(-c2ccc(Cl)cc2)c1` [Compound 3d, 4,4″-Dichloro-5′-amino-m-terphenyl], for which the inhibition at 50 µM at ovine COX-1 (ovine COX-1, 50 µM) was 36%. Moreover, the IC50 at human COX-2 is more than 50 µM. Moreover, the “ROS production induced by LPS” value in the data set with BV2 microglia cells is on record as “failed to decrease the levels of ROS”.

Broadly, the melting point is the temperature, or range, at which the solid turns liquid. Take `COc1ccc(-c2cc(NC(=O)NC3CCCC3)cc(-c3ccccc3)c2)cc1` [Compound 4e, 1-([4-Methoxy-m-terphenyl]-5′-yl)-3-cyclopentylurea]: the melting point was in the range of 208 to 209 °C. For the same molecule, on ovine COX-1, the IC50 is more than 50 µM. The IC50 at human COX-2 was more than 50 µM.

Turning to “ethyl 6-amino-2-(4-methoxyphenyl)-2-phenylbenzoate [Compound 1e]”, the “oCOX-1; % Inhibition at 50 µM” value at ovine COX-1 (ovine COX-1, 50 µM) is “NM (9) %”. Moreover, the IC50 at human COX-2 was more than 50 µM.

In turn, `O=C(Nc1cc(-c2ccccc2)cc(-c2ccc(Cl)cc2)c1)NC1CCCC1` [Compound 4c, 1-([4-Chloro-m-terphenyl]-5′-yl)-3-cyclopentylurea] displayed a melting point of 203 to 204 °C. Further, the IC50 at ovine COX-1 was more than 50 µM. Moreover, on human COX-2, the IC50 was more than 50 µM.

For `CCOC(=O)c1c(N)cc(-c2ccccc2)cc1-c1ccccc1` [Compound 1a, ethyl 6-amino-2,4-diphenylbenzoate], the IC50 on ovine COX-1 and at human COX-2 was more than 50 µM throughout.

Consider `Nc1cc(-c2ccc(Br)cc2)cc(-c2ccc(Br)cc2)c1` [Compound 3f, 4,4″-Dibromo-5′-amino-m-terphenyl], for which the melting point was 163 to 164 °C. In addition, at ovine COX-1, the IC50 was more than 50 µM. The IC50 on human COX-2 was more than 50 µM.

For the molecule `c1ccc(Nc2cc(-c3ccccc3)cc(-c3ccccc3)c2)cc1` [Compound 3g, 5′-Phenylamino-m-terphenyl], the IC50 on ovine COX-1 and at human COX-2 was more than 50 µM each time.

Regarding `COc1ccc(-c2cc(N)c(C(=O)O)c(-c3ccccc3)c2)cc1` [Compound 2e, 6-Amino-2-phenyl-4-(4-methoxyphenyl)benzoic acid], at ovine COX-1, the IC50 is more than 50 µM. The inhibition at 50 µM at human COX-2 was found to be 20%.

Consider `O=C(Nc1cc(-c2ccc(Cl)cc2)cc(-c2ccc(Cl)cc2)c1)NC1CCCC1` [Compound 4d, 1-([4,4″-Dichloro-m-terphenyl]-5′-yl)-3-cyclopentylurea], for which the melting point is 239 to 240 °C. Besides, the IC50 at ovine COX-1 was more than 50 µM. Further, on human COX-2, the IC50 was more than 50 µM.

With `Nc1cc(-c2ccc(Cl)cc2)cc(-c2ccc(Cl)cc2)c1C(=O)O` [Compound 2d, 6-Amino-2,4-di-(4-chlorophenyl)benzoic acid], the melting point fell in the range of 178 to 179 °C. Besides, on ovine COX-1, the IC50 is more than 50 µM. The inhibition at 50 µM at human COX-2 is 13%.

As for `Nc1cc(-c2ccc(Cl)cc2)cc(-c2ccccc2)c1C(=O)O` [Compound 2c, 6-Amino-2-phenyl-4-(4-chlorophenyl)benzoic acid], the melting point fell in the range of 229 to 230 °C. For the same molecule, the IC50 at ovine COX-1 was more than 50 µM. Besides, the inhibition at 50 µM at human COX-2 stood at 4%.

With `O=C(Nc1cc(-c2ccc(Br)cc2)cc(-c2ccc(Br)cc2)c1)NC1CCCC1` [Compound 4f, 1-([4,4″-Dibromo-m-terphenyl]-5′-yl)-3-cyclopentylurea], the melting point lay in the range of 222 to 223 °C. Also, at ovine COX-1 (ovine COX-1, 50 µM), the inhibition at 50 µM is 10%. Also, the “COX-1 selectivity (in words)” value on ovine COX-1 (ovine COX-1 vs human COX-2) is listed as “did not show COX-1 selectivity”. Also, the inhibition at 50 µM at human COX-2 worked out at 30%.

Regarding `O=C(O)c1c(Nc2ccccc2)cc(-c2ccccc2)cc1-c1ccccc1` [Compound 2g, 6-Phenylamino-2,4-diphenylbenzoic acid], the inhibition at 50 µM was 7% at ovine COX-1 (ovine COX-1, 50 µM) and 13% on human COX-2.

Regarding `O=C(Nc1cc(-c2ccccc2)cc(-c2ccccc2)c1)NC1CCCC1` [Compound 4a, 1-([m-Terphenyl]-5′-yl)-3-cyclopentyl urea], the IC50 at ovine COX-1 and at human COX-2 was more than 50 µM each time.

For `CCOC(=O)c1c(NC(=O)NC2CCCCC2)cc(-c2ccccc2)cc1-c1ccc(OC)cc1` [Compound 5, Ethyl 6-(3′-cyclohexylureido)-2-(4-methoxyphenyl)-4-phenylbenzoate], the IC50 on ovine COX-1 and on human COX-2 was more than 50 µM each time.

Take `Nc1cc(-c2ccc(Br)cc2)cc(-c2ccc(Br)cc2)c1C(=O)O` [Compound 2f, 6-Amino-2,4-di-(4-bromophenyl)benzoic acid]: the melting point fell in the range of 239 to 240 °C. On ovine COX-1 (ovine COX-1, 50 µM), the inhibition at 50 µM is 8%. In addition, at human COX-2, the inhibition at 50 µM was found to be 12%.

Regarding `Cc1ccc(-c2cc(N)c(C(=O)O)c(-c3ccccc3)c2)cc1` [Compound 2b, 6-Amino-2-phenyl-4-(4-tolyl)benzoic acid], the inhibition at 50 µM was 46% on ovine COX-1 (ovine COX-1, 50 µM) and 2% at human COX-2.

The molecule `Cc1ccc(-c2cc(NC(=O)NC3CCCC3)cc(-c3ccccc3)c2)cc1` [Compound 4b, 1-([4-Methyl-m-terphenyl]-5′-yl)-3-cyclopentyl urea] displayed a melting point of 217 to 218 °C. Moreover, on ovine COX-1, the IC50 is more than 50 µM. The IC50 at human COX-2 is more than 50 µM.

As for `COc1ccc(-c2noc(CC(=O)O)c2-c2ccc(OC)cc2)cc1` [Mofezolac, mofezolac, reference compound], the inhibition at 50 µM on ovine COX-1 (ovine COX-1, 50 µM) was 100%; on human COX-2, 42%.

With `Nc1cc(-c2ccccc2)cc(-c2ccccc2)c1C(=O)O` [Compound 2a, 6-Amino-2,4-diphenylbenzoic acid], the melting point lay within 162 to 163 °C. Further, the inhibition at 50 µM at ovine COX-1 (ovine COX-1, 50 µM) is 32%. The inhibition at 50 µM on human COX-2 came out at 3%.

For the origin of these results see paper PMC10384011, “m-Terphenylamines, Acting as Selective COX-1 Inhibitors, Block Microglia Inflammatory Response and Exert Neuroprotective Activity” (Molecules, 2023).
